Assay results as given in patent US20080267894A1, “Acerola Fruit-Derived Pectin and Its Application” (NICHIREI FOODS INC., priority 2005, published 2008).
Blank lines part the entries; values can stand above or below the compound they belong to.

Columns and labels:
tyrosinase = experiment: Effect of inhibiting tyrosinase (skin-whitening activity); format: biochemical, mushroom
Method: A test concerning activity of inhibiting tyrosinase, which is an enzyme that generates a melanin pigment, was conducted by the following procedure. • (1) *4 mL of an L-DOPA aqueous solution, **4 mL each of samples diluted at different concentrations, and 2 mL of a 0.2 M phosphate buffer (pH 6.8) were mixed. The mixture was heated in a thermostatic bath at 37° C. […] Changes in absorbance were automatically measured for over 20 seconds from the start to the end at intervals of 0.1 second. The rise velocity of absorbance between 4 seconds and 10 seconds after the start of measurement was calculated. *Tyrosinase solution: Solution obtained by dissolving tyrosinase (SIGMA) derived from a mushroom in a 0.2 M phosphate buffer (pH 6.8) at a concentration of 300 units/mL and then conducting filtering using a 0.2 μm filter • (3) To obtain a blank value, measurement was performed using a 0.2 M phosphate buffer instead of a sample and then tyrosinase-inhibiting activity was calculated by the equation below. Furthermore, a substance that could not be dissolved in a phosphate buffer was dissolved in dimethyl sulfoxide (DMSO), diluted with a phosphate buffer, and then measured. […]
Tyrosinase activity inhibition ratio (%)=100−((absorbance rise velocity of sample)/(absorbance rise velocity of blank))×100

[1] = DPPH radical scavenging activity test (Test method 1.2); format: biochemical; settings: Table 7
Method: Antioxidative activities were evaluated using an ethanol solution of diphenyl-p-picrylhydradil (DPPH), which is a stable radical. 1200 μl of ethanol and 400 μl of a specimen (adjusted to any concentration) were mixed with 1600 μl of a 250 mM acetate buffer (pH=5.5), followed by preincubation at 30° C. for 5 minutes. 800 μl of a 500 μM DPPH/ethanol solution was added to the solution and mixed therewith, and the resultant was then allowed to stand at 30° C. for 30 minutes. Absorbance was measured at 517 nm. A similar procedure was performed also for α-tocopherol and then the result was used as a positive control. The control used herein was prepared by performing a similar procedure using a solvent instead of a sample solution. Radical scavenging ratio was calculated by the following equation using the thus measured absorbances.
Scavenging ratio (%)=(1−[absorbance of sample]/[absorbance of control])×100
The above measurement for finding scavenging ratios was performed by varying stepwise the concentration of a sample in a solution. The concentration of a sample solution leading to a 50% DPPH radical scavenging ratio was found and designated the concentration required for scavenging 50% of the DPPH radicals. Thus, it can be said that the lower the numerical value, the higher the radical scavenging ability.

animal cells [2] = settings: cited from earlier work
[3] = Anti-oxidation activity (rhodan-iron method) using linoleic acid, suppression of auto-oxidation; format: biochemical; settings: for Absorbance, auto-oxidation of linoleic acid: specimen 0.02% (W/W)
Method: Linoleic acid is unsaturated fatty acid that is contained richly also in human body. The unsaturated fatty acid is characterized by being auto-oxidized when it is allowed to stand, so as to be lipid peroxide. In this experiment, linoleic acid is mixed with a sample, the mixture is allowed to stand at 40° C., and then antioxidative activities are evaluated based on increases in the amounts of lipid oxides purified from linoleic acid. […] The resulting mixture was put into a brown screw cap bottle, so that 10 ml of a reaction solution was prepared. When a specimen was a water-insoluble component, the specimen was dissolved in the above 99.5% ethanol, so that a reaction solution was prepared. When a specimen was a water-soluble component, the specimen was dissolved in the above distilled water, so that a reaction solution was prepared. In addition, in this test method, the term “specimen concentration” indicates a specimen concentration in 2 ml of 99.5% ethanol or 2 ml of distilled water. Therefore, the final concentration of each specimen in each reaction solution was one fifth of the predetermined concentration. Furthermore, regarding specimens positive for antioxidative activities, similar procedures were performed for BHA so that it is contained in appropriate amounts in reaction solutions. Positive control specimens were thus prepared. A control used herein was prepared by adding 2 ml of 99.5% ethanol and 2 ml of distilled water alone to the reaction solution. Such reaction solution stored in the dark at 40° C. was used for the main test and such reaction solution stored at 4° C. was used for a blank test. Test substances were sampled with time and then measured as described below. Tests were conducted for 2 or more weeks. 0.1 ml of 2×10^2M ferrous chloride (3.5% hydrochloric acid solution) was added to the mixture of 0.1 ml of a test substance, 9.7 ml of 75% ethanol, and 0.1 ml of 30% ammonium rhodanate aqueous solution. At precisely 3 minutes after addition, absorbance was measured at 500 nm. Absorbance was similarly measured in a blank test: Δ absorbance=[absorbance in main test]−[absorbance in blank test]. The higher the absorbance, the higher the amount of oxidized lipids. […] Furthermore, when oxidation of a sample is initiated, the absorbance increases. After the absorbance reaches a peak, the absorbance decreases as the amount of a sample to be oxidized decreases. It can be said that the sooner the absorbance reaches a peak, the weaker the anti-oxidation activity. Furthermore, anti-oxidation activities of the samples were compared in terms of oxidation ratio (%). Oxidation ratio (%) was obtained by the following formula using the oxidation (absorbance) of the control as 100%. Oxidation ratio (%)=([Δ absorbance of sample]/[Δ absorbance of control])×100 [Formula 1] It can be said that the higher the oxidation ratio (%), the lower the anti-oxidation activity.

brown guinea pigs = experiment: Skin-whitening test: suppression of pigmentation after UV irradiation; format: in vivo; settings: oral, dose of ascorbic acid 300 mg/kg animal weight/day, 42 days; UVB on days 0, 2, 4; observed days 7 to 42
Method: The effect of suppressing pigmentation after UV irradiation was examined using brown guinea pigs (SPF). The brown guinea pigs are of an animal species that undergoes pigmentation because of UV irradiation in a manner similar to humans and of a line that has been clearly maintained. Six guinea pigs were used for each group in this test. To promote pigmentation, UV (UVB) irradiation was performed from a distance of 40 cm using five SE lamps (wavelength between 250 nm and 350 nm, […] Corporation) installed in an UV irradiation apparatus (Y-798-II, Orion Electric Co., Ltd.). […] This time was designated the time for UV irradiation in this test. Each irradiation site was a 2 cm×2 cm square area located on either the left or right across the midline of the back of a guinea pig that had been sheared using electric clippers and then shaved using an electric shaver. […] Pigmentation was measured as follows. Before the initial administration (before irradiation) on the day of the initiation of administration and on days 7, 14, 21, 28, 35, and 42 after initial administration, L value (lightness) of irradiated sites were measured using a colorimeter (CR-300, Minolta Co., Ltd.) and then the ΔL value (L value on the day of observation-L value before irradiation) was found. […]

animal cells [4] = settings: animal cell test; cited from earlier work
[5] = Experiment 1, 1 day of storage at 40° C.
[6] = Experiment 1, 4 days of storage at 40° C.
[7] = Experiment 1, 5 days of storage at 40° C.
[8] = Experiment 1, 8 days of storage at 40° C.
[9] = Experiment 1, 11 days of storage at 40° C.
[10] = Experiment 1, 15 days of storage at 40° C.

Tyrosinase-inhibiting activity (tyrosinase; L-DOPA substrate, 37° C., sample concentration not given): 3.1%
Compound: OCC1OC2O[C@@H]3[C@@H](c4ccc(O)c(O)c4)Oc4cc(O)cc(O)c4[C@@H]3OC2C(O)C1O (stereo partly shown) [Aceronidin]
skin-whitening effect (effect of inhibiting tyrosinase), in words (tyrosinase): almost no skin-whitening effect (effect of inhibiting tyrosinase)
50% radical scavenging activity concentration [1]: 80 ppm

Compound: polygalacturonic acid
Effect of suppressing melanin pigment generation (animal cells [2]): has not been confirmed

Compound: 3(2)-t-Butyl-4-hydroxyanisole [BHA]
Absorbance, auto-oxidation of linoleic acid [3, 5]: 0.0000
Absorbance, auto-oxidation of linoleic acid [3, 6]: 0.0105
Absorbance, auto-oxidation of linoleic acid [3, 7]: 0.0111
Absorbance, auto-oxidation of linoleic acid [3, 8]: 0.0313
Absorbance, auto-oxidation of linoleic acid [3, 9]: 0.0559
Absorbance, auto-oxidation of linoleic acid [3, 10]: 0.0752
Absorbance, auto-oxidation of linoleic acid ([3]; Experiment 2, 1 day of storage at 40° C.): 0.0001
Absorbance, auto-oxidation of linoleic acid ([3]; Experiment 2, 4 days of storage at 40° C.): 0.0088
Absorbance, auto-oxidation of linoleic acid ([3]; Experiment 2, 5 days of storage at 40° C.): 0.0121
Absorbance, auto-oxidation of linoleic acid ([3]; Experiment 2, 8 days of storage at 40° C.): 0.0269
Absorbance, auto-oxidation of linoleic acid ([3]; Experiment 2, 14 days of storage at 40° C.): 0.0609
Absorbance, auto-oxidation of linoleic acid ([3]; Experiment 2, 18 days of storage at 40° C.): 0.0866

Compound: O=C1O[C@H]([C@@H](O)CO)C(O)=C1O [vitamin C, ascorbic acid]
ΔL value of UV-irradiated skin (pigmentation), FIG. 21, in words (brown guinea pigs): measurement values were almost the same
Antioxidative activities for lipids (FIG. 15), in words ([3]; specimen concentration 0.02% (W/W)): no antioxidative activities at all
Antioxidative activities for lipids (FIG. 15), in words ([3]; specimen concentration 0.04% (W/W)): no antioxidative activities at all

Compound: oligogalacturonic acid
Effect of suppressing melanin production (animal cells [4]): exerted an effect of suppressing melanin production

Compound: O=C[C@H](O)[C@@H](O)[C@@H](O)[C@H](O)C(=O)O [galacturonic acid]
Effect of suppressing melanin pigment generation (animal cells [2]): has not been confirmed

Compound: (±)-α-Tocopherol
50% radical scavenging activity concentration [1]: 127 ppm
Absorbance, auto-oxidation of linoleic acid [3, 5]: 0.0195
Absorbance, auto-oxidation of linoleic acid [3, 6]: 0.0827
Absorbance, auto-oxidation of linoleic acid [3, 7]: 0.1014
Absorbance, auto-oxidation of linoleic acid [3, 8]: 0.1326
Absorbance, auto-oxidation of linoleic acid [3, 9]: 0.1551
Absorbance, auto-oxidation of linoleic acid [3, 10]: 0.1796
